{"source": "patent US9944639B2", "about": "“Quinolizinone derivatives as PI3K inhibitors” (Lupin Limited, priority 2014, dated 2018)", "molecular_target": "T1, PI3Kδ (Homo sapiens, UniProt O00329)", "T1 construct": "endogenous in cells; host or cells: Raji cells", "T1 sequence (O00329 whole entry)": "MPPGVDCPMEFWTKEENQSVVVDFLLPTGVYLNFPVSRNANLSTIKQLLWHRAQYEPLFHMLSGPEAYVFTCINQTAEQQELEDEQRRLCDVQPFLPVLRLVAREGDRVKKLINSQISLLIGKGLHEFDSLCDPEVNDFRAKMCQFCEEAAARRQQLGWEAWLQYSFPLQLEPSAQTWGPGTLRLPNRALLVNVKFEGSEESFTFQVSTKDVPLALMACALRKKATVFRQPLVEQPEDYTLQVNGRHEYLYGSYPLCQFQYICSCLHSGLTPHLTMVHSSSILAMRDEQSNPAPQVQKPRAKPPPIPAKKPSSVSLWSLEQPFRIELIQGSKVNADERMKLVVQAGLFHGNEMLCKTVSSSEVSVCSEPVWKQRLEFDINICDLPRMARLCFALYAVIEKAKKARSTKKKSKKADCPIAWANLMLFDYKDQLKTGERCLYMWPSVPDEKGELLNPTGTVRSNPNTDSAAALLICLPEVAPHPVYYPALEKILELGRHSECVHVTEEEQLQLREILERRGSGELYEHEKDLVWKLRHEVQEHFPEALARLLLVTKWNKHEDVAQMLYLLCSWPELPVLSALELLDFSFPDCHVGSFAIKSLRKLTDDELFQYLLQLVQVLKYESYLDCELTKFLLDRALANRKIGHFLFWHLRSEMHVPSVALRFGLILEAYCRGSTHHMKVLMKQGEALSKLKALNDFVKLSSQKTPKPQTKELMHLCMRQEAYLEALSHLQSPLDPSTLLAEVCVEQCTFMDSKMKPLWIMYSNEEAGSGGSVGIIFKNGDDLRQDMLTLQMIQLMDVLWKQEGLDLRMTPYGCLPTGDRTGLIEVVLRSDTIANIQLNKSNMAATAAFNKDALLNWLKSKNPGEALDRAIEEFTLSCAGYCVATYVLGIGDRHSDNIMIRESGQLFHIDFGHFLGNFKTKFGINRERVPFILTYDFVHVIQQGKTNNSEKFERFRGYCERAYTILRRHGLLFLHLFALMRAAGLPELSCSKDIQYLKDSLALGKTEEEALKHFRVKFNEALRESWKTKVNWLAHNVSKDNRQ", "T1 sequence (P27986 whole entry partner)": "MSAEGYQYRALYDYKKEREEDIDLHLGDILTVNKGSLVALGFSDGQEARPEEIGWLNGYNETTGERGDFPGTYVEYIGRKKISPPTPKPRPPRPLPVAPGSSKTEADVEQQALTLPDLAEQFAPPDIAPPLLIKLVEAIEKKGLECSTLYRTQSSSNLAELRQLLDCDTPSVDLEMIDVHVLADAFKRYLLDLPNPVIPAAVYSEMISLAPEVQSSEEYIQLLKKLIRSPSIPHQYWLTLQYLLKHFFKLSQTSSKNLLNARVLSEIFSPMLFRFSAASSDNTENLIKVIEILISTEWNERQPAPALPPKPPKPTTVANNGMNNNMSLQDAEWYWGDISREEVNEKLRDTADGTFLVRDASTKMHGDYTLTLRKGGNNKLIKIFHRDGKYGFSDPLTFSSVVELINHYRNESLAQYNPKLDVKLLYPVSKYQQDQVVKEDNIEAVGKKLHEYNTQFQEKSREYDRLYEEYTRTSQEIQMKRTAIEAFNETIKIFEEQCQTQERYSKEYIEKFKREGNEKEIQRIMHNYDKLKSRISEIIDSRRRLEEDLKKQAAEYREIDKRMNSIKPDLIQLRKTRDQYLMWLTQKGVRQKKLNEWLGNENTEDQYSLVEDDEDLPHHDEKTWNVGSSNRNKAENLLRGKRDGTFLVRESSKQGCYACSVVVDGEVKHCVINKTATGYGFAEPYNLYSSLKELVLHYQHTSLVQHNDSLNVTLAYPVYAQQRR", "experiment": "Cell Based Assay for PI3Kδ (AKT phosphorylation, AlphaScreen SureFire, anti-IgM stimulated Raji cells)", "conditions": "compounds 1 h, anti-IgM (3 μg/mL) 30 min, phosphorylation of AKT, read-out: PI3Kδ inhibition IC50", "procedure": "[formula] C) Cell Based Assay for PI3Kδ\nRaji cells were maintained in RPMI-1640 (Sigma) supplemented with 10% fetal bovine serum (heat inactivated) (FBS, Sigma), 100 U penicillin/mL, and […] streptomycin and incubated at 37° C. and 5% CO2. Cells were centrifuged and resuspended in a complete medium. The required numbers of cells were transferred to a tissue culture flask containing medium without serum for 1 h at 37° C., 5% CO2. Following 1 h serum starvation, cells were centrifuged and resuspended in Hank's Balanced Salt Solution (HBSS, Sigma) and seeded in at a density of 1 million cells/well in 96-well clear bottom plates. The cells were treated with test compounds for 1 h at 37° C., 5% CO2. Cells were then stimulated with anti-IgM (3 μg/mL) for 30 min. After Stimulation, cells were lysed with 15 μL of 5× lysis buffer and the plate was shaken on an orbital plate shaker at approximately 300 rpm for 10 min. AlphaScreen® SureFire® Cell-based Assay (Perkin-Elmer, Waltham, Mass., USA) was performed to measure phosphorylation of AKT, in the cells according to the manufacturer's instructions. The luminescence was measured using an alpha technology-compatible plate reader BMG Labtech, Germany) at 520-620 nm. Percentage inhibition was calculated according to formula: […]\nIC50 values were calculated by plotting % inhibition against the respective concentrations of test compounds using GraphPad Prism 5.", "note": "pIC50: −log10 of the molar value.", "data": [{"smiles": "C[C@H](Nc1ncnc(N)c1C#N)c1cc2ccccn2c(=O)c1-c1ccccc1", "note": "(single isomer, unassigned) [Compound 4a, 4-Amino-6-((1-(4-oxo-3-phenyl-4H-quinolizin-2-yl)ethyl)amino)pyrimidine-5-carbonitrile]", "values": [{"measurement": "pIC50", "value": "7.30 to 7.96"}]}, {"smiles": "C[C@H](Nc1ncnc2[nH]cnc12)c1cc2ccccn2c(=O)c1-c1cccc(F)c1", "note": "(single isomer, unassigned) [Compound 5a, 2-(1-((9H-purin-6-yl)amino)ethyl)-3-(3-fluorophenyl)-4H-quinolizin-4-one]", "values": [{"measurement": "pIC50", "value": "6.60 to 7.29"}]}, {"smiles": "C[C@H](Nc1ncnc(N)c1C#N)c1cc2ccccn2c(=O)c1-c1cccc(F)c1", "note": "(single isomer, unassigned) [Compound 6a, 4-Amino-6-((1-(3-(3-fluorophenyl)-4-oxo-4H-quinolizin-2-yl)ethyl)amino)-pyrimidine-5-carbonitrile]", "values": [{"measurement": "pIC50", "value": "8.00 to 10.00"}]}, {"smiles": "Cc1cccc2cc([C@H](C)Nc3nc(N)nc4[nH]cnc34)c(-c3ccccc3)c(=O)n12", "note": "(single isomer, unassigned) [Compound 8a, 2-(1-((2-Amino-9H-purin-6-yl)amino)ethyl)-6-methyl-3-phenyl-4H-quinolizin-4-one]", "values": [{"measurement": "pIC50", "value": "8.00 to 10.00"}]}, {"smiles": "Cc1cccc2cc([C@H](C)Nc3nc(F)nc4[nH]cnc34)c(-c3ccccc3)c(=O)n12", "note": "(single isomer, unassigned) [Compound 9a, 2-(1-((2-Fluoro-9H-purin-6-yl)amino)ethyl)-6-methyl-3-phenyl-4H-quinolizin-4-one]", "values": [{"measurement": "pIC50", "value": "8.00 to 10.00"}]}, {"smiles": "Cc1cccc2cc([C@H](C)Nc3ncnc(N)c3C#N)c(-c3cccc(F)c3)c(=O)n12", "note": "(single isomer, unassigned) [Compound 10a, 4-Amino-6-((1-(3-(3-fluorophenyl)-6-methyl-4-oxo-4H-quinolizin-2-yl)ethyl)amino)pyrimidine-5-carbonitrile]", "values": [{"measurement": "pIC50", "value": "8.00 to 10.00"}]}, {"smiles": "Cc1cccc2cc([C@H](C)Nc3ncnc4[nH]cnc34)c(-c3cccc(F)c3)c(=O)n12", "note": "(single isomer, unassigned) [Compound 11a, 2-(1-((9H-purin-6-yl)amino)ethyl)-3-(3-fluorophenyl)-6-methyl-4H-quinolizin-4-one]", "values": [{"measurement": "pIC50", "value": "8.00 to 10.00"}]}, {"smiles": "Cc1cccc2cc([C@H](C)Nc3nc(N)nc4[nH]cnc34)c(-c3cccc(F)c3)c(=O)n12", "note": "(single isomer, unassigned) [Compound 12a, 2-(1-((2-Amino-9H-purin-6-yl)amino)ethyl)-3-(3-fluorophenyl)-6-methyl-4H-quinolizin-4-one]", "values": [{"measurement": "pIC50", "value": "8.00 to 10.00"}]}, {"smiles": "C[C@H](Nc1ncnc(N)c1C#N)c1cc2ccc(F)cn2c(=O)c1-c1ccccc1", "note": "(single isomer, unassigned) [Compound 14a]", "values": [{"measurement": "pIC50", "value": "7.30 to 7.96"}]}, {"smiles": "C[C@H](Nc1nc(N)nc2[nH]cnc12)c1cc2ccc(F)cn2c(=O)c1-c1cccc(F)c1", "note": "(single isomer, unassigned) [Compound 15a, 2-(1-((2-Amino-9H-purin-6-yl)amino)ethyl)-7-fluoro-3-(3-fluorophenyl)-4H-quinolizin-4-one]", "values": [{"measurement": "pIC50", "value": "7.30 to 7.96"}]}, {"smiles": "C[C@H](Nc1ncnc(N)c1C#N)c1cc2ccc(F)cn2c(=O)c1-c1cccc(F)c1", "note": "(single isomer, unassigned) [Compound 16a, 4-Amino-6-((1-(7-fluoro-3-(3-fluorophenyl)-4-oxo-4H-quinolizin-2-yl)ethyl)amino)pyrimidine-5-carbonitrile]", "values": [{"measurement": "pIC50", "value": "8.00 to 10.00"}]}, {"smiles": "Cc1cccc2cc([C@H](C)Nc3ncnc(N)c3C#N)c(-c3cc(F)cc(F)c3)c(=O)n12", "note": "(single isomer, unassigned) [Compound 17a, 4-Amino-6-((1-(3-(3,5-difluorophenyl)-6-methyl-4-oxo-4H-quinolizin-2-yl)ethyl)amino)pyrimidine-5-carbonitrile]", "values": [{"measurement": "pIC50", "value": "8.00 to 10.00"}]}, {"smiles": "Cc1cccc2cc([C@H](C)Nc3nc(N)nc4[nH]cnc34)c(-c3cc(F)cc(F)c3)c(=O)n12", "note": "(single isomer, unassigned) [Compound 18a, 2-(1-((2-amino-9H-purin-6-yl)amino)ethyl)-3-(3,5-difluorophenyl)-6-methyl-4H-quinolizin-4-one]", "values": [{"measurement": "pIC50", "value": "8.00 to 10.00"}]}, {"smiles": "Cc1cccc2cc([C@H](C)Nc3ncnc(N)c3C#N)c(-c3ccc(F)c(F)c3)c(=O)n12", "note": "(single isomer, unassigned) [Compound 19a, 4-Amino-6-((1-(3-(3,4-difluorophenyl)-6-methyl-4-oxo-4H-quinolizin-2-yl)ethyl)amino)pyrimidine-5-carbonitrile]", "values": [{"measurement": "pIC50", "value": "7.30 to 7.96"}]}, {"smiles": "C[C@H](Nc1nc(N)ncc1C#N)c1cc2ccc(F)cn2c(=O)c1-c1cccc(F)c1", "note": "(single isomer, unassigned) [Compound 20a, 2-Amino-4-((1-(7-fluoro-3-(3-fluorophenyl)-4-oxo-4H-quinolizin-2-yl)ethyl)amino)pyrimidine-5-carbonitrile]", "values": [{"measurement": "pIC50", "value": "7.30 to 7.96"}]}, {"smiles": "Cc1nc(N)nc(N[C@@H](C)c2cc3ccc(F)cn3c(=O)c2-c2cccc(F)c2)c1C#N", "note": "(single isomer, unassigned) [Compound 21a, 2-Amino-4-((1-(7-fluoro-3-(3-fluorophenyl)-4-oxo-4H-quinolizin-2-yl)ethyl)amino)-6-methylpyrimidine-5-carbonitrile]", "values": [{"measurement": "pIC50", "value": "8.00 to 10.00"}]}, {"smiles": "Cc1c(F)ccc2cc([C@H](C)Nc3ncnc(N)c3C#N)c(-c3cccc(F)c3)c(=O)n12", "note": "(single isomer, unassigned) [Compound 23a, 4-Amino-6-((1-(7-fluoro-3-(3-fluorophenyl)-6-methyl-4-oxo-4H-quinolizin-2-yl)ethyl)amino)pyrimidine-5-carbonitrile]", "values": [{"measurement": "pIC50", "value": "8.00 to 10.00"}]}, {"smiles": "Cc1c(F)ccc2cc([C@H](C)Nc3ncnc4[nH]cnc34)c(-c3ccccc3)c(=O)n12", "note": "(single isomer, unassigned) [Compound 24a, 2-(1-((9H-purin-6-yl)amino)ethyl)-7-fluoro-6-methyl-3-phenyl-4H-quinolizin-4-one]", "values": [{"measurement": "pIC50", "value": "8.00 to 10.00"}]}, {"smiles": "CC[C@H](Nc1ncnc(N)c1C#N)c1cc2ccc(F)cn2c(=O)c1-c1ccccc1", "note": "(single isomer, unassigned) [Compound 41a, 4-Amino-6-((1-(7-fluoro-4-oxo-3-phenyl-4H-quinolizin-2-yl)propyl)amino)pyrimidine-5-carbonitrile]", "values": [{"measurement": "pIC50", "value": "7.30 to 7.96"}]}, {"smiles": "CC[C@H](Nc1nc(N)nc(N)c1C#N)c1cc2ccc(F)cn2c(=O)c1-c1ccccc1", "note": "(single isomer, unassigned) [Compound 42a, 2,4-diamino-6-((1-(7-fluoro-4-oxo-3-phenyl-4H-quinolizin-2-yl)propyl)amino)pyrimidine-5-carbonitrile]", "values": [{"measurement": "pIC50", "value": "8.00 to 10.00"}]}, {"smiles": "CC[C@H](Nc1ncnc(N)c1C#N)c1cc2ccc(F)cn2c(=O)c1-c1cccc(F)c1", "note": "(single isomer, unassigned) [Compound 44a, 4-Amino-6-((1-(7-fluoro-3-(3-fluorophenyl)-4-oxo-4H-quinolizin-2-yl)propyl)amino)pyrimidine-5-carbonitrile]", "values": [{"measurement": "pIC50", "value": "7.30 to 7.96"}]}, {"smiles": "CC[C@H](Nc1nc(N)nc(N)c1C#N)c1cc2ccc(F)cn2c(=O)c1-c1cccc(F)c1", "note": "(single isomer, unassigned) [Compound 45a, 2,4-diamino-6-((1-(7-fluoro-3-(3-fluorophenyl)-4-oxo-4H-quinolizin-2-yl)propyl)amino)pyrimidine-5-carbonitrile]", "values": [{"measurement": "pIC50", "value": "8.00 to 10.00"}]}, {"smiles": "CC[C@H](Nc1nc(N)nc2[nH]cnc12)c1cc2ccc(F)cn2c(=O)c1-c1cccc(F)c1", "note": "(single isomer, unassigned) [Compound 47b, 2-(1-((2-amino-9H-purin-6-yl)amino)propyl)-7-fluoro-3-(3-fluorophenyl)-4H-quinolizin-4-one]", "values": [{"measurement": "pIC50", "value": "7.30 to 7.96"}]}]}
